Laboratory results published in ChEMBL document CHEMBL4725353, “Discovery of Pyrido[2,3-b]indole Derivatives with Gram-Negative Activity Targeting Both DNA Gyrase and Topoisomerase IV” (J Med Chem, 2020).
In brackets after ≈: the same amount, converted by molar mass.

What was measured:
Escherichia coli [1] = test: microbe, parasite or virus in culture; details: ATCC 29213
Description: Antibacterial activity against Escherichia coli ATCC 29213 assessed as reduction in microbial growth preincubated for 20 to 24 hrs followed by subculture in absence of compound and measured on day 4 CLSI based broth microdilution susceptibility method

Escherichia coli [2] = test: microbe, parasite or virus in culture; details: ATCC 25922
Description: Antibacterial activity against Escherichia coli ATCC 25922 assessed as reduction in microbial growth preincubated for 20 to 24 hrs followed by subculture in absence of compound and measured on day 4 CLSI based broth microdilution susceptibility method

in vitro = details: mouse, liver microsomes
Description: Intrinsic clearance in mouse liver microsomes preincubated for 10 mins followed by NADPH regenerating system addition and measured up to 30 mins by LC/MS-MS analysis

physchem [3] = details: PBS, pH 6.5
Description: Solubility of compound in PBS at pH 6.5 incubated for over night by HPLC-UV based lyophilization solubility assay

[4] = Distribution coefficient between octanol and buffer, log D of the compound in pH 7.4 buffer by CAMDIS assay; assay type: physicochemical
physchem [5] = test: physchem
Description: Ionization constant (acid), pKa of the compound by photometric titration assay

Row | SMILES | MIC (Escherichia coli [1]) | MIC (Escherichia coli [2]) | CLint scaled at 0.5 h (in vitro) | solubility (physchem [3]) | logD [4] | pKa (physchem [5])
1 | CCNc1cc(F)cc2c1[nH]c1ncc(-c3cnc([C@@H](C)O)nc3)c(-n3ccc(C(F)(F)F)n3)c12 | < 0.25 µg/mL | 0.5 µg/mL (≈ 1.03 µM) | 57.2 mL/min/kg | < 1 µg/mL |  | 
2 | CCNc1cc(F)cc2c1[nH]c1ncc(-c3cnc(NC)nc3)c(-n3ccc(C(F)(F)F)n3)c12 | < 0.016 µg/mL | 0.25 µg/mL (≈ 0.531 µM) | 53.1 mL/min/kg | < 1 µg/mL |  | 
3 | CCNc1cc(F)cc2c1[nH]c1ncc(-c3cncc(C#N)c3)c(-n3cnc(C(F)(F)F)c3)c12 | 0.25 µg/mL (≈ 0.537 µM) | > 16 µg/mL |  |  |  | 
4 | CCNc1cc(F)cc2c1[nH]c1ncc(-c3cncc(Cc4ncc[nH]4)c3)c(-n3ccc(C(F)(F)F)n3)c12 | < 0.057 µg/mL | 2.83 µg/mL (≈ 5.44 µM) |  |  | 3.62 | 
5 | CCNc1cc(F)cc2c1[nH]c1ncc(-c3cncc(C(=O)NC)c3)c(-n3ccc(C(F)(F)F)n3)c12 | < 0.25 µg/mL | 0.5 µg/mL (≈ 1.01 µM) |  |  | 3.42 | 
6 | CCNc1cc(F)cc2c1[nH]c1ncc(-c3cncc(C(=N)NC)c3)c(-n3ccc(C(F)(F)F)n3)c12 | 0.5 µg/mL (≈ 1.01 µM) | 8 µg/mL (≈ 16.1 µM) |  |  | 2.28 | 
7 | CNc1cc(F)cc2c1[nH]c1ncc(-c3cnc(C4(C(=O)O)CC4)nc3)c(-n3ccc(C(F)(F)F)n3)c12 | < 0.016 µg/mL | 0.75 µg/mL (≈ 1.47 µM) | 22.9 mL/min/kg | 148 µg/mL (≈ 289 µM) |  | 
8 | CCNc1cc(F)cc2c1[nH]c1ncc(-c3cncc(CC(N)=O)c3)c(-n3ccc(C(F)(F)F)n3)c12 | < 0.125 µg/mL | 1 µg/mL (≈ 2.01 µM) |  |  | 3.1 | 
9 | CCNc1cc(F)cc2c1[nH]c1ncc(-c3cnc(C4(C(=O)O)CC4)nc3)c(-n3ccc(C(F)(F)F)n3)c12 | < 0.016 µg/mL | 0.375 µg/mL (≈ 0.714 µM) | 43.8 mL/min/kg | 67 µg/mL (≈ 128 µM) |  | 
10 | CCNc1cc(F)cc2c1[nH]c1ncc(-c3cncc(C#N)c3)c(-n3ccc(CN)n3)c12 | 2 µg/mL (≈ 4.69 µM) | 16 µg/mL (≈ 37.5 µM) |  |  |  | 
11 | CCNc1cc(F)cc2c1[nH]c1ncc(-c3cnc(C(=O)NC)nc3)c(-n3ccc(C(F)(F)F)n3)c12 | < 0.25 µg/mL | < 0.25 µg/mL |  |  |  | 
12 | CCNc1cc(F)cc2c1[nH]c1ncc(-c3cncc(C#N)c3)c(-n3cc(C(=O)OCC)c(C(F)(F)F)n3)c12 |  | 2 µg/mL (≈ 3.72 µM) |  |  |  | 
13 | CCNc1cc(F)cc2c1[nH]c1ncc(-c3cncc(C#N)c3)c(-n3ncc4c3CCNC4)c12 |  | 4 µg/mL (≈ 8.84 µM) | 52.1 mL/min/kg | 200 µg/mL (≈ 442 µM) |  | 
14 | CCNc1cc(F)cc2c1[nH]c1ncc(-c3cncc(C#N)c3)c(-n3cc4c(n3)CNC4)c12 |  | 4 µg/mL (≈ 9.12 µM) |  |  |  | 
15 | CCNc1cc(F)cc2c1[nH]c1ncc(-c3cnc([C@H](C)O)nc3)c(-n3ccc(C(F)(F)F)n3)c12 | < 0.25 µg/mL | 0.5 µg/mL (≈ 1.03 µM) | 52.8 mL/min/kg | < 0.2 µg/mL |  | 
16 | CCNc1cc(F)cc2c1[nH]c1ncc(-c3cncc(C#N)c3)c(-n3ccc(C(C)C)n3)c12 | < 0.25 µg/mL | > 16 µg/mL |  | < 0.7 µg/mL |  | 
17 | CCNc1cc(F)cc2c1[nH]c1ncc(-c3cncc(C#N)c3)c(-n3ncc4c3CNCC4)c12 |  | 2 µg/mL (≈ 4.42 µM) | 20.2 mL/min/kg |  |  | 
18 | CCNc1cc(F)cc2c1[nH]c1ncc(-c3cncc(C#N)c3)c(-n3cc(CO)c(C(F)(F)F)n3)c12 |  | 4 µg/mL (≈ 8.07 µM) |  |  |  | 
19 | CCNc1cc(F)cc2c1[nH]c1ncc(-c3cncc(C#N)c3)c(-n3nc(C(F)F)c4c3CNC4)c12 |  | 2 µg/mL (≈ 4.09 µM) |  | < 1 µg/mL |  | 
20 | CCNc1cc(F)cc2c1[nH]c1ncc(-c3cnc(N4CCNCC4)nc3)c(-n3ccc(C(F)(F)F)n3)c12 | 0.31 µg/mL (≈ 0.59 µM) | 1 µg/mL (≈ 1.9 µM) | 61.4 mL/min/kg | < 1 µg/mL |  | 8.6
21 | CCNc1cc(F)cc2c1[nH]c1ncc(-c3cnc(NC4CCNC4)nc3)c(-n3ccc(C(F)(F)F)n3)c12 (configuration not stated) | 0.25 µg/mL (≈ 0.476 µM) | 2 µg/mL (≈ 3.81 µM) | 60.1 mL/min/kg | 8.3 µg/mL (≈ 15.8 µM) |  | 9.55
22 | CCNc1cc(F)cc2c1[nH]c1ncc(-c3cnc(C(C)(C)O)nc3)c(-n3ccc(C(F)(F)F)n3)c12 | < 0.25 µg/mL | 1 µg/mL (≈ 2 µM) | 58.7 mL/min/kg | < 1 µg/mL |  | 
23 | CCNc1cc(F)cc2c1[nH]c1ncc(-c3cnc(OCC(C)(C)C(=O)O)nc3)c(-n3ccc(C(F)(F)F)n3)c12 | < 0.016 µg/mL | 2 µg/mL (≈ 3.59 µM) | 43.5 mL/min/kg | < 1 µg/mL |  | 
24 | CCNc1cc(F)cc2c1[nH]c1ncc(-c3cnc(C(N)=O)nc3)c(-n3ccc(C(F)(F)F)n3)c12 | < 0.25 µg/mL | < 0.25 µg/mL | 55.5 mL/min/kg | < 0.2 µg/mL |  | 
25 | CCNc1cc(F)cc2c1[nH]c1ncc(-c3cncc(N4CCOCC4)c3)c(-n3ccc(C(F)(F)F)n3)c12 | < 0.25 µg/mL | 1 µg/mL (≈ 1.9 µM) |  |  | 3.64 | 
26 | CCNc1cc(F)cc2c1[nH]c1ncc(-c3cncc(Cc4ncco4)c3)c(-n3ccc(C(F)(F)F)n3)c12 | < 0.056 µg/mL | 0.71 µg/mL (≈ 1.36 µM) |  |  | 3.66 | 
27 | CCNc1cc(F)cc2c1[nH]c1ncc(-c3cnc(NC4CCNCC4)nc3)c(-n3ccc(C(F)(F)F)n3)c12 | 0.63 µg/mL (≈ 1.17 µM) | 1 µg/mL (≈ 1.85 µM) | 57.9 mL/min/kg | 7.6 µg/mL (≈ 14.1 µM) |  | 9.52
28 | CCNc1cc(F)cc2c1[nH]c1ncc(-c3cncc(C#N)c3)c(-n3cc(C(F)(F)F)cn3)c12 | < 0.016 µg/mL | 1 µg/mL (≈ 2.15 µM) |  | < 1 µg/mL |  | 
